Experimental data as given in US20240261294A1, “METHOD FOR TREATING IDH INHIBITOR-RESISTANT SUBJECTS” (Eli Lilly and Company, priority 2021, published 2024).
Numbering of substitutions follows the chain as printed. pIC50: −log10 of the molar value. Like-named read-outs stand apart in the source and are kept apart here.

How the values were obtained:
IDH2 R172K_G260A cis = target: T1, IDH2 R172K_G260A cis (Homo sapiens, UniProt P48735, G260A/R172K); assay: Inhibition of 2-HG production in IDH2 mutant U-87 MG cells; format: cell-based; details: 16 hours incubation, 50K cells/well, 100 μl media/well, read-out: Relative IC50 (nM) Mean, inhibition of 2-HG production
T1 construct: expressed in transfected cells; host or cells: U-87 MG
T1 sequence (P48735 40-452 R172K/G260A): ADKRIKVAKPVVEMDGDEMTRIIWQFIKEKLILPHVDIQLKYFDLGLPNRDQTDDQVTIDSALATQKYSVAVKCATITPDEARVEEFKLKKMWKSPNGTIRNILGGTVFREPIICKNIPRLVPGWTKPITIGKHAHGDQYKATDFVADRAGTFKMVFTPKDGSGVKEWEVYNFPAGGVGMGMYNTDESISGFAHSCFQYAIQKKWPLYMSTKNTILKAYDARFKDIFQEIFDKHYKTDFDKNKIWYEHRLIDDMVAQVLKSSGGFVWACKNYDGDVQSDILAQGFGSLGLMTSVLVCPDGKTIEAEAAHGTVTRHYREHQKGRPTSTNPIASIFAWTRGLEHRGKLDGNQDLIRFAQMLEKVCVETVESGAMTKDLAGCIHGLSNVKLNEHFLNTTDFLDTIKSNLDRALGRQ
Experimental: (§1) Compounds and Formulation. Compound A may be synthesized as described in WO/18/111707. Compound A is prepared as a 20 mM stock in 100% DMSO (dimethyl sulfoxide) (Sigma, D2438) and diluted serially in 100% DMSO to achieve the desired concentrations. DMSO preparations are further diluted with cell culture media prior to addition in the assay.
(§2) Cell lines. U-87 MG cells (ATCC, HTB-14) are cultured and assayed in MEM (Gibco, 11095) with 2 mM GlutaMAX (Gibco, 35050), 1 mM Pyruvate (Gibco, 11360), 0.1 mM NEAA ((Non-essential amino acid) Gibco, 11140) and 10% dialyzed FBS (Fetal bovine serum) (Gibco, 26400).
(§3) Cell-based inhibition assays. Cell-based assays are performed by measuring 2-HG in U-87 MG cells in which IDH2 mutations are expressed.
(§4) DNA constructs encoding IDH2 mutations are introduced into U-87 MG cells using transfection (Promega FuGENE HD, E2311) or lentiviral transduction, and the IDH2-mutant expressing cell lines are selected using blasticidin (5 μg/ml) or puromycin (1 μg/ml). Second site mutations (Q316E, I319M, P167R, and G260A) are evaluated in cis (same monomer as driver mutation within dimer) or in trans (opposite monomer from driver mutation in dimer). For compound treatments, 12,500 or 50,000 cells per well in culture medium (150 μl or 100 μl, respectively) are plated in 96 well cell culture plates (Falcon, 353377) 2 hrs prior to treatment. Cells are treated with serial dilutions of compound A in standard growth media. Plates are incubated in a mammalian cell culture incubator (humidified, 37° C., 5% CO2) for 16 or 72 hrs. Following the incubation period, the media is aspirated and cell extracts are prepared by addition of ice-cold 80% methanol/20% water (100 μL) containing liquid chromatography-mass spectrometry (LC-MS) internal standards (1 μM ^13C4 α-KG and ^13C5 2-HG) per well for ion pairing LC-MS method. 96-well sample plates are then sealed, shaken at 450 rpm for 10 min, and then placed at −20° C. and stored until LC-MS analysis.
(§5) LC-MS metabolite analysis of conditioned media and cell lysates. The effect of inhibitors on the concentrations of 2-HG are determined by LC-MS analysis of cell lysates using an ion-pairing method as described below.
(§6) Calibration curves are prepared by spiking 2-HG and α-KG into 80% methanol/20% water containing LC-MS internal standards (1 μM ^13C4 α-KG and 1 μM ^13C5 2-HG). The quantitation of 2-HG and α-KG is accomplished using an AB Sciex 6500 mass spectrometer with an Electrospray Ionization (ESI) probe and interfaced with an Ultra Performance Liquid Chromatography (UHPLC) system in the negative multiple-reaction monitoring (MRM) mode. The UHPLC system consists of an Agilent 1290 binary pump, thermostatted column compartment (TCC), and sampler. The injection volume is 1 μL for cell culture extracts. The extracts are chromatographically resolved using a Hypercarb column, 2.1×20 mm, […] Javelin HTS (Thermo Scientific, PN: 35005-022135). Mobile phase A is water/10 mM tributylamine/15 mM acetic acid. Mobile phase B is acetonitrile/20 mM tributylamine/30 mM acetic acid. The solvent flow rate is 1.0 mL/min. The isocratic condition is kept at 26% mobile phase B. The valve, sample loop, and needle are washed with 50% acetonitrile: 50% methanol for 20 seconds. The column temperature is kept at 55° C. Calibration curves are calculated by least-square linear regression with 1/x weighting. 2-HG and α-KG are quantified using standard curve and ratio of the peak area of analytes to internal standard. Data analysis is performed using MultiQuant 3.0 (AB Sciex). The raw data are exported to Microsoft Excel spreadsheets.
(§7) Determination of IC50 Curves. IC50 curves for each compound are obtained using four parameter data fitting analysis in GraphPad/Prism software.

IDH2 R140Q_Q316E cis = target: T2, IDH2 R140Q_Q316E cis (Homo sapiens, UniProt P48735, Q316E/R140Q); assay: as above; format: cell-based
T2 construct: expressed in transfected cells; host or cells: U-87 MG
T2 sequence (P48735 40-452 R140Q/Q316E): T1 sequence (P48735 40-452 R172K/G260A) with R101Q, K133R, A221G, Q277E
Experimental: as §1, §2, §3, §4, §5, §6, §7

- IC50 (IDH2 R172K_G260A cis): 13 nM
- IC50 (IDH2 R140Q_Q316E cis; 16 hours incubation, 50K cells/well, 100 μl media/well, read-out: Relative IC50 (nM) Mean, inhibition of 2-HG production): 16 nM
- pIC50 (IDH2 R140Q_Q316E cis; 72 hours incubation, 12.5K cells/well, 150 μl media/well, read-out: IC50, inhibition of 2-HG production): 7.66
Structure (SMILES): C=CC(=O)N1CCN([C@@H](CC2CC2)c2ccc([C@H](C)Nc3ncc4c(n3)N(CC)C(=O)OC4)cc2)CC1 [Compound A, 7-[[(1S)-1-[4-[(1S)-2-cyclopropyl-1-(4-prop-2-enoylpiperazin-1-yl)ethyl]phenyl]ethyl]amino]-1-ethyl-4H-pyrimido[4,5-d][1,3]oxazin-2-one]
